Assay results as given in patent US20160346324A1, “Method of Inactivating Bacterial Lipases Using Oxidative Chlorine Species” (NovaBay Pharmaceuticals, Inc., priority 2015, published 2016).
Entries after “also recorded” stand apart in the source; their conditions may differ.

Tests used:
Format in all cases: biochemical
lipase = experiment: Lipase Activity Assay Kit III, lipase stock treated with equal part of test product versus sterile water; details: 0.01% HOCl solution, 37° C. for 1 hour
Procedure: Merck describes a fluorimetric method where lipase activity is determined using a coupled enzyme reaction, which results in the generation of methylresorufin (lex=529/lem=600 nm) proportional to the enzymatic activity present. One unit of lipase is the amount of enzyme that will generate […] of methylresorufin from the substrate per minute at 37° C. (Lipase Activity Assay Kit III Catalog Number MAK048). The lipase stock was treated with equal part of the test product. The control consisted of equal parts of the lipase stock and sterile water. Both were incubated at 37° C. for 1 hour.
The Lipase Activity Assay Kit III (Sigma MAK048) consisted of materials for a standard, a positive control and background control. Once all the controls and the standard were set-up into a 96-well microtiter plate according to the provided instructions, 2 μL of the lipase treatments were diluted into 998 μL of the provided Lipase Assay Buffer. In the microtiter plate, 2 μL of this dilution was added to 48 μL of the Lipase Assay Buffer in quintuplicate. The reaction mix was added to every well except for the standard.
Using the SpectraMax M5, the plate was shaken and incubated for 3 minutes prior to reading the relative fluorescence units (RFU) at λex/λem=529/600 nm. Incubation was continued at 37° C. and the microtiter plate was read every 5 minutes for 1 hour with shaking prior to every reading.

[1] = test system: Talaromyces flavus lipase; experiment: Lipase Activity Assay Kit III, Talaromyces flavus lipase treated with HOCl; details: one hour at 37° C.
Procedure: (§1) Lipases from Burkholderia cepacia, Pseudomonas fluorescens, Thermus thermophilus, Talaromyces flavus and Burkholderia species were obtained from Sigma (Catalog Numbers 62309, 28602, L3419, L3294 and 75577, respectively) and were diluted into sterile water for testing.
(§2) Alternative procedure: Activity of 0.01% HOCl in saline pH 4 against each lipase was determined as follows. 10 μL of 0.01% HOCl was added to 90 μL of 2 mg/mL lipase (final concentration of HOCl 0.001%). After one hour of incubation at 37° C., the lipase-HOCl solutions were diluted 500-fold into lipase buffer. Alternatively, 90 μL of 0.01% HOCl was added to 10 μL solution of 2 mg/mL lipase (final concentration of HOCl 0.009%) and after an hour of incubation at 37° C., the lipase-HOCl solutions were diluted 50-fold into lipase buffer. The lipase activity was determined using the Lipase Activity Assay Kit III (Sigma Aldrich®, St. Louis, Mo., USA).
(§3) Alternative procedure without a 10 minutes incubation: A SpectraMax® M5 Microplate Reader was used to continuously incubate the microtiter plate at 37° C. and measure the fluorescence ([…]=529/600 nm) every 5 minutes for 1.5 hours with no incubation period. The results are shown on FIG. 1. […]
(§4) Activity of lipases from Pseudomonas fluorescens, Thermusthermophilus, flavus and Burkholderia are determined using methods similar to the one described above for Burkholderia cepacia lipase. […]

[2] = target: T1, Burkholderia cepacia lipase (Burkholderia cepacia, UniProt P22088); experiment: Lipase Activity Assay Kit III, Burkholderia cepacia lipase treated with HOCl; details: one hour at 37° C.
T1 construct: purchased Sigma 62309
T1 sequence (P22088 45-364): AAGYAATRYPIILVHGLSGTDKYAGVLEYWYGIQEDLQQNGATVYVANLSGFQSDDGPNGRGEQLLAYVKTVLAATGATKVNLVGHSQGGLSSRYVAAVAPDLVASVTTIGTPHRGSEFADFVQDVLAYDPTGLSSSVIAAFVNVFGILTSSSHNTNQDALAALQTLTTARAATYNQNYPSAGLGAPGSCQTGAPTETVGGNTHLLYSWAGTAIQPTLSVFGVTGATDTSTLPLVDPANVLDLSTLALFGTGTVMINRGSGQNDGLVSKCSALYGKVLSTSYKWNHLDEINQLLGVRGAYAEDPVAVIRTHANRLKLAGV
Procedure: as §1
Activity of 0.01% HOCl in saline pH 4 against Burkholderia cepacia lipase was determined as follows. 0.01% HOCl was added to a solution of 2 mg/mL of Pseudomonas cepacia lipase (Sigma Aldrich®, St. Louis, Mo., USA). After an hour of incubation at 37° C., the lipase-HOCl solutions were diluted 500-fold into lipase buffer. The lipase activity was determined using the Lipase Activity Assay Kit III (Sigma Aldrich®, St. Louis, Mo., USA).
as §2
A SpectraMax® M5 Microplate Reader was used to continuously incubate the microtiter plate at 37° C. and measure the fluorescence ([…]=529/600 nm) every 5 minutes for 1.5 hours after an initial 10-minute incubation period. The results are shown on FIG. 1.
Alternative procedure without a 10 minutes incubation: A SpectraMax® M5 Microplate Reader was used to continuously incubate the microtiter plate at 37° C. and measure the fluorescence ([…]=529/600 nm) every 5 minutes for 1.5 hours with no incubation period. The results are shown on FIG. 1. […] The results are shown on FIGS. 1, 2, and 3. […] In the presence of 0.009% HOCl, all lipases were inactivated (FIGS. 2, 3).

[3] = test system: Pseudomonas fluorescens lipase; experiment: Lipase Activity Assay Kit III, Pseudomonas fluorescens lipase treated with HOCl; details: one hour at 37° C.
Procedure: as §1, §2, §3, §4

[4] = 0.001% HOCl final concentration
[5] = 0.009% HOCl final concentration

OCl [HOCl, hypochlorous acid]
inactivation of lipase versus sterile water control (lipase): inactivates lipase
inactivation of Talaromyces flavus lipase [1, 4]: inactivation; also recorded: completely inactivated
inactivation of Talaromyces flavus lipase [1, 5]: inactivated
inactivation of Burkholderia cepacia lipase [2, 4]: still active
inactivation of Burkholderia cepacia lipase [2, 5]: inactivation; also recorded: inactivated
inactivation of bacterial lipase (lipase activity, fluorescence) ([2]; 0.01% HOCl in saline pH 4, 2 mg/mL lipase): completely inactivated
inactivation of Pseudomonas fluorescens lipase [3, 4]: still active
inactivation of Pseudomonas fluorescens lipase [3, 5]: inactivation; also recorded: inactivated
